# Test results taken from PubChem BioAssay (NCI).
#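 1) Cells in 96-well plates. 2) Compound, 48 h, 5 concentrations. 3) Linear interpolation between surrounding doses. 4) Unreached endpoint = highest concentration. GI50: concentration for 50% inhibition of growth. TGI: total growth inhibition.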
# Tests used:
# Test in all cases: DTP human tumour cell line panel, 48 h
# [1] = system: LOX IMVI melanoma
# [2] = system: A498 renal
# [3] = system: HOP-62 NSCLC
# [4] = system: HCT-15 colon
# [5] = system: SF-295 CNS
# [6] = system: CAKI-1 renal
# [7] = system: UACC-257 melanoma
# [8] = system: NCI-H226 lung
# [9] = system: MOLT-4 leukemia
# [10] = system: SF-539 CNS
Structure (SMILES),TGI [1] [µM],TGI [2] [µM],TGI [3] [µM],TGI [4] [µM],TGI [5] [µM],TGI [6] [µM],TGI [7] [µM],TGI [8] [µM],TGI [9] [µM],TGI [10] [µM],GI50 [2] [nM],GI50 [10] [nM],GI50 [3] [nM],GI50 [4] [nM],GI50 [5] [nM],GI50 [6] [nM],GI50 [7] [nM]
Oc1ccc2ccccc2c1N=Nc1ccc(N=Nc2ccccc2)cc1,> 100,> 100,> 100,> 100,> 100,> 100,> 100,> 100,> 100,–,–,–,–,–,–,–,–
C#CCCCCC#CC1CCCC1C1=CC(=O)c2ccccc21 (stereo not drawn),13.9,28.3,20.3,19.9,16.8,–,25.2,29.8,> 100,21.1,–,–,–,–,–,–,–
CCCNCC(O)/C=C/[Si](C)(C)C (stereo not drawn) (tested in a mixture with another compound),> 100,> 100,–,> 100,> 100,–,> 100,–,–,> 100,–,–,–,–,–,–,–
CCCCCCc1ccc(O)cc1O,> 100,> 100,> 100,> 100,> 100,–,> 85.1,> 100,97.4,> 100,–,–,–,–,–,–,–
Cc1ccccc1N=Nc1ccc(N=Nc2c(O)ccc3cc(S(=O)(=O)O)cc(S(=O)(=O)O)c23)c(C)c1,–,–,> 100,> 100,> 100,> 100,> 100,> 100,> 100,> 100,–,–,–,–,–,–,–
NC(=O)c1nnc2cc(F)c(F)cc2c1N,> 100,> 100,39.6,> 100,64.5,> 100,> 100,73.6,> 100,> 100,–,–,–,–,–,–,–
C/C=C1/CN2CC[C@@H]3c4ccccc4N4[C@H](C(=O)OC)[C@H]1C[C@H]2[C@]34/C=C/C1=COC[C@@H]2[C@H]1C[C@H]1c3c(c4ccccc4n3C)C[C@@H]2N1C,8.74,10,7.29,7.83,8.18,7.89,8.51,9.16,13.4,7.61,–,–,–,–,–,–,–
CC(=O)O[C@H]1CC[C@]2(C)[C@H]3C(=O)C=C4[C@@H]5C[C@](C)(C(=O)N6CCCNCC6)CC[C@]5(C)CC[C@@]4(C)[C@]3(C)CC[C@H]2C1(C)C,–,3.1,4.14,2.97,3.2,2.79,4.26,–,–,3,1710,1620,1780,1480,1760,1430,1980
O=[N+]([O-])/C=C/c1cccc(F)c1,> 100,27.4,32.4,5.6,30.2,29.9,15.8,6.05,–,20.8,–,–,–,–,–,–,–
O=C(N/N=C/c1cc(Br)cc(Br)c1[O-])c1ccccc1O.O=C(N/N=C/c1cc(Br)cc(Br)c1[O-])c1ccccc1O.[Cl-].[Fe+3],15.5,–,5.48,3.84,5.98,18.2,29.3,4.97,> 100,5.35,–,–,–,–,–,–,–
C[n+]1ccccc1/C=C/c1ccc2c(c1)OCO2,> 10,> 10,> 10,> 10,> 10,> 10,> 10,> 10,> 10,> 10,–,–,–,–,–,–,–
